In ChEMBL document CHEMBL1201862, “PubChem BioAssay data set” (2004):
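Cultured in 96-well plates, cells were exposed to test compound for 48 hours across five concentrations. GI50 = concentration required for 50% inhibition of growth.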 Active and inactive are the calls of the source. Rule as the data show it: active = GI50 up to about 1.1 µM and inactive = higher. Square brackets hold non-standard residues; d marks the D form. Peptide text beside a SMILES is read from it. * marks the point of attachment. Tyr(3-Br) = N[C@@H](Cc1ccc(O)c(Br)c1)C(=O)O; Boc = CC(C)(C)OC(=O)*

Experiments:
Experiment in all cases: growth of human tumour cells (NCI), 48 h
HCC 2998 = system: HCC 2998
OVCAR-5 = system: OVCAR-5
SK-MEL-2 = system: SK-MEL-2
SF-295 = system: SF-295
UACC-257 = system: UACC-257
SNB-75 = system: SNB-75
RPMI-8226 = system: RPMI-8226
OVCAR-3 = system: OVCAR-3
SR = system: SR
SF-539 = system: SF-539
HL-60 = system: HL-60
K562 = system: K562
ACHN = system: ACHN
NCI-H23 = system: NCI-H23
A498 = system: A498
MDA-MB-231 = system: MDA-MB-231
OVCAR-8 = system: OVCAR-8
NCI-H460 = system: NCI-H460
HCT-15 = system: HCT-15
BT-549 = system: BT-549

SMILES | GI50 (HCC 2998) | GI50 (OVCAR-5) | GI50 (SK-MEL-2) | GI50 (SF-295) | GI50 (UACC-257) | GI50 (SNB-75) | GI50 (RPMI-8226) | GI50 (OVCAR-3) | GI50 (SR) | GI50 (SF-539) | GI50 (HL-60) | GI50 (K562) | GI50 (ACHN) | GI50 (NCI-H23) | GI50 (A498) | GI50 (MDA-MB-231) | GI50 (OVCAR-8) | GI50 (NCI-H460) | GI50 (HCT-15) | GI50 (BT-549)
O=Cc1ccc2c(c1)CC1(C2)Cc2ccc(C=O)cc2C1 | 35.8 µM (inactive) | > 77.1 µM (inactive) | 11.8 µM (inactive) | > 45.2 µM (inactive) | 18.8 µM (inactive) | 61.8 µM (inactive) | 0.274 µM (active) | 13.9 µM (inactive) | 2.67 µM (inactive) | 4.81 µM (inactive) | 2 µM (inactive) | 2.89 µM (inactive) | 24.4 µM (inactive) | 17.6 µM (inactive) | 28.1 µM (inactive) | 12.2 µM (inactive) | 7.26 µM (inactive) | 11.6 µM (inactive) | 7.03 µM | –
COC1(CC[C@@H](C)COC2OC(CO)C(O)C(O)C2O)OC2C[C@H]3[C@@H]4CC[C@H]5C[C@@H](OC6OC(CO)C(OC7OC(CO)C(O)C(O)C7O)C(O)C6OC6OC(C)C(O)C(O)C6O)[C@H](O)C[C@]5(C)[C@H]4CC[C@]3(C)C2[C@@H]1C (some centres not stated) | 1.7 µM (inactive) | 2.17 µM (inactive) | 2.12 µM (inactive) | 1.8 µM (inactive) | 1.97 µM (inactive) | 1.77 µM (inactive) | 2 µM (inactive) | 1.82 µM (inactive) | 2.77 µM (inactive) | 1.83 µM (inactive) | 2.32 µM (inactive) | 2.37 µM (inactive) | 1.77 µM (inactive) | – | 1.81 µM (inactive) | 1.95 µM (inactive) | 1.99 µM (inactive) | 3.08 µM (inactive) | – | –
Cc1cc(N(CCC#N)CCC#N)ccc1/N=N/c1ccc([N+](=O)[O-])cc1 | > 100 µM (inactive) | > 100 µM (inactive) | > 100 µM (inactive) | 56.4 µM (inactive) | > 100 µM (inactive) | > 10 µM (inactive) | 44.9 µM (inactive) | 47.2 µM (inactive) | > 100 µM (inactive) | > 100 µM (inactive) | > 100 µM (inactive) | > 100 µM (inactive) | 95.9 µM (inactive) | 43 µM (inactive) | > 100 µM (inactive) | – | 23 µM (inactive) | 39.4 µM (inactive) | 39.4 µM | –
C#CC(O)/C=C/C(O)CCCC(O)CC#CC(O)C#CCCCCC(O)/C=C/CCCC(=O)CCCCCCCCCCCCCCCC(O)C(O)C#CC(=O)O (configuration not stated) | > 25 µM (inactive) | > 25 µM (inactive) | > 25 µM (inactive) | > 25 µM (inactive) | > 25 µM (inactive) | > 25 µM (inactive) | > 25 µM (inactive) | – | > 25 µM (inactive) | – | > 25 µM (inactive) | > 25 µM (inactive) | > 25 µM (inactive) | > 25 µM (inactive) | – | > 25 µM (inactive) | > 25 µM (inactive) | > 25 µM (inactive) | > 25 µM | –
COc1ccc(N[C@H](C[S+]([O-])c2ccc(C)cc2)c2ccc(F)cc2)cc1 (some centres not stated) | > 100 µM (inactive) | > 100 µM (inactive) | > 100 µM (inactive) | 41.8 µM (inactive) | > 100 µM (inactive) | 27.2 µM (inactive) | > 100 µM (inactive) | > 100 µM (inactive) | – | 22.3 µM (inactive) | – | > 100 µM (inactive) | 52.6 µM (inactive) | 13.2 µM (inactive) | – | 40.5 µM (inactive) | > 100 µM (inactive) | 91.2 µM (inactive) | 27.5 µM | > 100 µM (inactive)
COc1cc(Br)cc2c1O[C@H]1C(=O)CC3CC21CCN3C (some centres not stated) | 34.1 µM (inactive) | > 100 µM (inactive) | > 100 µM (inactive) | > 100 µM (inactive) | 35.8 µM (inactive) | – | 21.8 µM (inactive) | > 100 µM (inactive) | 33.9 µM (inactive) | > 100 µM (inactive) | 16.4 µM (inactive) | 19.8 µM (inactive) | 57.1 µM (inactive) | 24.3 µM (inactive) | > 100 µM (inactive) | – | 19.7 µM (inactive) | – | 54.1 µM | 48.4 µM (inactive)
CC(=O)NC(CCCN(Cc1ccccc1)C(=O)N(CCCl)N=O)C(=O)NCc1ccccc1 (configuration not stated) | 64.6 µM (inactive) | 35.2 µM (inactive) | > 66.5 µM (inactive) | 6.19 µM (inactive) | 50 µM (inactive) | 9.02 µM (inactive) | > 70 µM (inactive) | 98.6 µM (inactive) | 3.69 µM (inactive) | 2.54 µM (inactive) | 8.71 µM (inactive) | 68.4 µM (inactive) | 10.8 µM (inactive) | 27 µM (inactive) | 32.7 µM (inactive) | – | > 71.1 µM (inactive) | 3.32 µM (inactive) | > 81.8 µM | –
CO[C@]12CC(=O)C3(C(C[C@H]4CC5CCC6=CC(=O)CC[C@]6(OC(C)=O)C5C[C@@]43C)C1)C1C[C@H]3[C@@H]4CCC5=CC(=O)CC[C@]5(OC(C)=O)[C@H]4CC[C@]3(C)C12 (some centres not stated) | > 100 µM (inactive) | > 100 µM (inactive) | > 100 µM (inactive) | > 100 µM (inactive) | > 100 µM (inactive) | > 100 µM (inactive) | > 100 µM (inactive) | > 100 µM (inactive) | > 100 µM (inactive) | > 100 µM (inactive) | > 100 µM (inactive) | > 100 µM (inactive) | > 100 µM (inactive) | > 100 µM (inactive) | > 100 µM (inactive) | 27.5 µM (inactive) | > 100 µM (inactive) | > 100 µM (inactive) | > 100 µM | –
CCOC(=O)NC(=S)c1ccc(O)c2ccccc12 | 91 µM (inactive) | > 100 µM (inactive) | > 100 µM (inactive) | 46.3 µM (inactive) | > 100 µM (inactive) | – | 74.5 µM (inactive) | 49.8 µM (inactive) | 25.5 µM (inactive) | 53.8 µM (inactive) | 1.47 µM (inactive) | 42.1 µM (inactive) | 80.5 µM (inactive) | 55.5 µM (inactive) | > 100 µM (inactive) | – | 34.2 µM (inactive) | 38.8 µM (inactive) | 36.6 µM | 23 µM (inactive)
CSc1ccc(C2C(Cl)C(=O)N2NC(=O)c2c(Cl)c(Cl)c(Cl)c(Cl)c2-c2nc3ccccc3[nH]2)cc1 (configuration not stated) | 20.2 µM (inactive) | 22.3 µM (inactive) | 31.6 µM (inactive) | 33.1 µM (inactive) | 27.2 µM (inactive) | 15.2 µM (inactive) | – | 21.8 µM (inactive) | 2.9 µM (inactive) | 20.8 µM (inactive) | 19.1 µM (inactive) | 18.1 µM (inactive) | 24.2 µM (inactive) | 15.6 µM (inactive) | 31.8 µM (inactive) | – | 18.8 µM (inactive) | – | 19.1 µM | 17.2 µM (inactive)
CCOC(=O)c1c(N2CCCC2)nsc1Nc1ccc(F)cc1 | 31.4 µM (inactive) | 25.4 µM (inactive) | 19.2 µM (inactive) | 60 µM (inactive) | 45.1 µM (inactive) | – | 36.6 µM (inactive) | > 100 µM (inactive) | 45.7 µM (inactive) | 64.7 µM (inactive) | 20.4 µM (inactive) | 29.8 µM (inactive) | 31.2 µM (inactive) | 27.1 µM (inactive) | 40 µM (inactive) | 39.4 µM (inactive) | 41.4 µM (inactive) | 27 µM (inactive) | 29.6 µM | –
[N-]=[N+]=NC1=C(c2ccccc2)C(=O)c2cccc3cccc1c23 | 11.4 µM (inactive) | 48.5 µM (inactive) | 65 µM (inactive) | 11.2 µM (inactive) | 12.9 µM (inactive) | 10.2 µM (inactive) | 7 µM (inactive) | 16.4 µM (inactive) | 11.4 µM (inactive) | 16.1 µM (inactive) | 16.6 µM (inactive) | 7.13 µM (inactive) | 6.01 µM (inactive) | 24.9 µM (inactive) | 1.52 µM (inactive) | – | – | 5.79 µM (inactive) | 17.8 µM | 8.17 µM (inactive)
COCOCC/C=C/C=O | > 100 µM (inactive) | > 100 µM (inactive) | > 100 µM (inactive) | > 100 µM (inactive) | > 100 µM (inactive) | > 100 µM (inactive) | > 100 µM (inactive) | > 100 µM (inactive) | > 100 µM (inactive) | > 100 µM (inactive) | > 100 µM (inactive) | > 100 µM (inactive) | > 100 µM (inactive) | > 100 µM (inactive) | > 100 µM (inactive) | – | > 100 µM (inactive) | > 100 µM (inactive) | > 100 µM | –
CCc1cc2c(cc1C(=O)CCC(=O)O)CC1(C2)Cc2cc(CC)c(C(=O)CCC(=O)O)cc2C1 | > 100 µM (inactive) | > 100 µM (inactive) | 99.8 µM (inactive) | > 100 µM (inactive) | > 100 µM (inactive) | 50.5 µM (inactive) | 63.1 µM (inactive) | > 100 µM (inactive) | – | > 100 µM (inactive) | > 100 µM (inactive) | 91.2 µM (inactive) | > 100 µM (inactive) | > 100 µM (inactive) | > 100 µM (inactive) | > 100 µM (inactive) | > 100 µM (inactive) | > 100 µM (inactive) | > 100 µM | –
COC(=O)[C@H](Cc1ccc(O)c(Br)c1)NC(=O)[C@H](Cc1ccc(O)cc1)NC(=O)OC(C)(C)C (Boc-Tyr-[Tyr(3-Br)]-OMe) | 31.6 µM (inactive) | > 100 µM (inactive) | 37 µM (inactive) | > 100 µM (inactive) | 43.8 µM (inactive) | 92 µM (inactive) | 28.4 µM (inactive) | 20.7 µM (inactive) | 44.6 µM (inactive) | 28.7 µM (inactive) | 32.4 µM (inactive) | > 100 µM (inactive) | 37.3 µM (inactive) | 27.4 µM (inactive) | > 100 µM (inactive) | – | 19.9 µM (inactive) | 19.2 µM (inactive) | 21.6 µM | 35.2 µM (inactive)
